These results are taken from PubChem BioAssay AID1259407 (Chemical Carcinogenesis Research Information System (CCRIS), 2018).

In the data set the test system is CCRIS mutagenicity, Ames/micronucleus/aberration tests. Description: CCRIS mutagenicity studies.
The mark [1] stands for this setting: Test System: AMES SALMONELLA TYPHIMURIUM, Strain/Indicator: TA98, Metabolic Activation: NONE, Method: PREINCUBATION
Where [2] appears, read: Test System: AMES SALMONELLA TYPHIMURIUM, Strain/Indicator: TA100, Metabolic Activation: NONE, Method: PREINCUBATION
Where [3] appears, read: Test System: AMES SALMONELLA TYPHIMURIUM, Strain/Indicator: TA100, Metabolic Activation: NONE, Method: STANDARD PLATE.
Where [4] appears, read: Test System: AMES SALMONELLA TYPHIMURIUM, Strain/Indicator: TA104, Metabolic Activation: NONE, Method: PREINCUBATION
Setting [5] is: Test System: MOUSE LYMPHOMA, Strain/Indicator: L5178Y (TK+/TK-), Metabolic Activation: NONE, Method: SUSPENSION/PLATE.

The source made the active and inactive calls. How the calls were made is not given here.

Take `Cc1cc(C(C)(C)C)c(O)c(C(C)(C)C)c1`: the mutagenic call runs as follows: (End Point: IN VITRO CHROMOSOMAL ABERRATIONS, Test System: CHINESE HAMSTER OVARY CELLS, Metabolic Activation: NONE) “inactive; negative”; (End Point: IN VITRO CHROMOSOMAL ABERRATIONS, Test System: CHINESE HAMSTER OVARY CELLS, Metabolic Activation: RAT, LIVER, S-9, AROCLOR 1254) “inactive; negative; dose-related increase but it was not significant”; (Test System: AMES SALMONELLA TYPHIMURIUM, Strain/Indicator: TA97, Metabolic Activation: NONE, Method: STANDARD PLATE) “inactive; negative”; (Test System: AMES SALMONELLA TYPHIMURIUM, Strain/Indicator: TA97, Metabolic Activation: RAT, LIVER, S-9, AROCLOR 1254, Method: STANDARD PLATE) “inactive; negative”; (Test System: AMES SALMONELLA TYPHIMURIUM, Strain/Indicator: TA97, Metabolic Activation: RAT, LIVER, S-9, AROCLOR, Method: STANDARD PLATE) “inactive; negative”; under setting [1], “inactive; negative”. The mutagenic call is, setting by setting: (Test System: AMES SALMONELLA TYPHIMURIUM, Strain/Indicator: TA98, Metabolic Activation: NONE, Method: STANDARD PLATE) “inactive; negative”; (Test System: AMES SALMONELLA TYPHIMURIUM, Strain/Indicator: TA98, Metabolic Activation: RAT, LIVER, S-9, AROCLOR 1254, Method: STANDARD PLATE) “inactive; negative”; (Test System: AMES SALMONELLA TYPHIMURIUM, Strain/Indicator: TA98, Metabolic Activation: RAT, LIVER, S-9, Method: PREINCUBATION) “inactive; negative”; (Test System: AMES SALMONELLA TYPHIMURIUM, Strain/Indicator: TA98, Metabolic Activation: S-9, Method: STANDARD PLATE) “inactive; negative”; under setting [2], “inactive; negative”; under setting [3], “inactive; negative”. Moreover, the mutagenic call (Test System: AMES SALMONELLA TYPHIMURIUM, Strain/Indicator: TA100, Metabolic Activation: RAT, LIVER, S-9, AROCLOR 1254, Method: STANDARD PLATE) is “inactive; negative”; the mutagenic call (Test System: AMES SALMONELLA TYPHIMURIUM, Strain/Indicator: TA100, Metabolic Activation: RAT, LIVER, S-9, AROCLOR, Method: STANDARD PLATE) is “inactive; negative”; the mutagenic call (Test System: AMES SALMONELLA TYPHIMURIUM, Strain/Indicator: TA100, Metabolic Activation: RAT, LIVER, S-9, Method: PREINCUBATION) is “inactive; negative”; the mutagenic call (Test System: AMES SALMONELLA TYPHIMURIUM, Strain/Indicator: TA100, Metabolic Activation: S-9, Method: STANDARD PLATE) is “inactive; negative”; the mutagenic call (Test System: AMES SALMONELLA TYPHIMURIUM, Strain/Indicator: TA102, Metabolic Activation: NONE, Method: STANDARD PLATE) is “inactive; negative”; the mutagenic call (Test System: AMES SALMONELLA TYPHIMURIUM, Strain/Indicator: TA102, Metabolic Activation: RAT LIVER S-9, PHENOBARBITAL AND 5,6-BENZOFLAVONE, Method: STANDARD PLATE) is “inactive; negative”. Also, the mutagenic call reads like this: (Test System: AMES SALMONELLA TYPHIMURIUM, Strain/Indicator: TA102, Metabolic Activation: RAT, LIVER, S-9, AROCLOR, Method: STANDARD PLATE) “inactive; negative”; under setting [4], “inactive; negative”; (Test System: AMES SALMONELLA TYPHIMURIUM, Strain/Indicator: TA104, Metabolic Activation: NONE, Method: STANDARD PLATE) “inactive; negative”; (Test System: AMES SALMONELLA TYPHIMURIUM, Strain/Indicator: TA104, Metabolic Activation: RAT, LIVER, S-9, AROCLOR, Method: PREINCUBATION) “inactive; negative”; (Test System: AMES SALMONELLA TYPHIMURIUM, Strain/Indicator: TA104, Metabolic Activation: RAT, LIVER, S-9, AROCLOR, Method: STANDARD PLATE) “inactive; negative”; (Test System: AMES SALMONELLA TYPHIMURIUM, Strain/Indicator: TA2638, Metabolic Activation: RAT LIVER S-9, PHENOBARBITAL AND 5,6-BENZOFLAVONE, Method: STANDARD PLATE) “inactive; negative”. Also, the mutagenic call reads like this: (Test System: E. COLI, Strain/Indicator: WP2 (PKM101), Metabolic Activation: RAT LIVER S-9, PHENOBARBITAL AND 5,6-BENZOFLAVONE, Method: STANDARD PLATE) “inactive; negative”; (Test System: E.COLI, Strain/Indicator: WP2 UVRA (PKM101), Metabolic Activation: RAT LIVER S-9, PHENOBARBITAL AND 5,6-BENZOFLAVONE, Method: STANDARD PLATE) “inactive; negative”.

Regarding `Nc1cc([N+](=O)[O-])c(C(=O)O)c([N+](=O)[O-])c1`, the mutagenic call was “inactive; negative” (End Point: In vitro chromosomal aberrations, Test System: V79 Chinese hamster fibroblasts, Metabolic Activation: None); “active; positive” (End Point: In vitro micronucleus, Test System: HepG2 human hepatoma cells, Metabolic Activation: None); “active; positive” (Test System: Ames Salmonella typhimurium, Strain/Indicator: TA98, Metabolic Activation: None, Method: Standard plate); “active; positive” (Test System: Ames Salmonella typhimurium, Strain/Indicator: TA98, Metabolic Activation: Rat, Liver, S-9, Method: Standard plate); “active; positive, ta98nr is the nitroreductase-deficient derivative of ta98” (Test System: Ames Salmonella typhimurium, Strain/Indicator: TA98NR, Metabolic Activation: None, Method: Standard plate); “active; positive” (Test System: Ames Salmonella typhimurium, Strain/Indicator: TA100, Metabolic Activation: None, Method: Standard plate). For the same compound, the mutagenic call (Test System: Ames Salmonella typhimurium, Strain/Indicator: TA100, Metabolic Activation: Rat, Liver, S-9, Method: Standard plate) is “active; positive”.

As for `O[C@@H]1[C@H]2O[C@H]2c2c(ccc3ccccc23)[C@H]1O`, the mutagenic call is “active; positive” (Test System: AMES SALMONELLA TYPHIMURIUM, Strain/Indicator: TA97, Metabolic Activation: NONE, Method: PREINCUBATION); “active; positive” under setting [1]; “active; positive” under setting [2]; “active; positive” under setting [3]; “active; positive” under setting [4]; “active; positive” (Test System: CHINESE HAMSTER V-79, Strain/Indicator: V-79/6-THIOGUANINE, Metabolic Activation: NONE).

In the case of `N[C@@H](CCC(=O)NNc1ccccc1)C(=O)O`, the mutagenic call was “inactive; negative” under setting [3]; “active; positive” (Test System: AMES SALMONELLA TYPHIMURIUM, Strain/Indicator: TA100, Metabolic Activation: RAT KIDNEY, MICROSOMES, Method: STANDARD PLATE); “inactive; negative” (Test System: AMES SALMONELLA TYPHIMURIUM, Strain/Indicator: TA100, Metabolic Activation: RAT LIVER, MICROSOMES, Method: STANDARD PLATE).

With `O=C1NC2(CCCCC2)C(=O)N1CCN1CC1`, the mutagenic call (Test System: AMES SALMONELLA TYPHIMURIUM, Strain/Indicator: TA1535, Metabolic Activation: NONE, Method: STANDARD PLATE) was “active; positive”.

Regarding `CC(CCC(=O)O)(c1ccc(O)cc1)c1ccc(O)cc1`, the mutagenic call under setting [5] is “active; positive” and the mutagenic call (Test System: MOUSE LYMPHOMA, Strain/Indicator: L5178Y (TK+/TK-), Metabolic Activation: RAT LIVER S-9, AROCLOR, Method: SUSPENSION/PLATE) is “active; positive”.

In the case of `CSc1ncnc2nc[nH]c12`, under setting [3], the mutagenic call is “active; positive”.

As for `NCCc1ccc(O)cc1`, the mutagenic call is, setting by setting: under setting [5], “active; positive”; (Test System: MOUSE LYMPHOMA, Strain/Indicator: L5178Y (TK+/TK-), Metabolic Activation: RAT, LIVER, S-9, AROCLOR 1254, Method: SUSPENSION/PLATE) “active; positive”.
